Experimental findings from patent US20190194148A1, “TETRAZOLE-CONTAINING 1,2-CYCLOPROPANE-CARBOXAMIDES” (Bayer Pharma Aktiengesellschaft, priority 2017, published 2019) are described below.

For orientation: pIC50 means the IC50 on a negative log10 scale, so that one unit is a factor of ten.

pIC50: −log10 of the molar value. Read-outs that look alike come from different tables or passages of the source.

Assay [1] has as its target T1, human B1 receptor (Homo sapiens, UniProt P46663).
T1 construct: host or cells: CHO-K1
T1 sequence (P46663 1-353): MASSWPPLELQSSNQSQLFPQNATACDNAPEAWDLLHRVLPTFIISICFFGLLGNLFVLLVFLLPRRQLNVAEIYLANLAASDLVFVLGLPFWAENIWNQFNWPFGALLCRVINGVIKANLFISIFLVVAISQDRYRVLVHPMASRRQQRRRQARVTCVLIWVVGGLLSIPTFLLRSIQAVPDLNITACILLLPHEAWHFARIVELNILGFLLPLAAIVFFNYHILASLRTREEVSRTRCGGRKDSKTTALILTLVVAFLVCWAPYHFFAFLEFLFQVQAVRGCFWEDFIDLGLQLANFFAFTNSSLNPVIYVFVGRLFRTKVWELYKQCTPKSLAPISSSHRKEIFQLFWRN
Kind of assay: Calcium flux assay (FLIPR) with recombinant CHO-K1 cells expressing human B1 receptor. Format: cell-based. The essentials:
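Indicator-loaded CHO-K1 cells expressing human B1 receptor were pre-incubated with compound (8 concentrations, triplicate, 1% DMSO) for 30 min at 28° C, in assay buffer with or without 0.1% BSA (hB1 IC50 vs free IC50). They were then challenged with Lys-(Des-Arg)-bradykinin from plates at 3.5×EC90, with peak FLIPR fluorescence read at 538 nm. IC50 was fitted from % response between DMSO and full block by 20 μM Lys-(Des-Arg-Leu)-bradykinin.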
(In general: Calcium flux is commonly read through the fluorescence of an indicator in the cells.)

The target in assay [2] is T2, native human B1 receptors (Homo sapiens, UniProt P46663).
T2 construct: which express native human B1 receptors after induction with human IL-1; Coriell Institute; host or cells: IMR-90 human foetal lung fibroblasts, induced with human IL-1beta
T2 sequence (P46663 1-353): T1 sequence (P46663 1-353)
Kind of assay: Calcium flux assay (FLIPR) with IMR-90 human fibroblasts for Bradykinin B1 receptor antagonist. Format: cell-based. The following applies: IMR-90 human foetal lung fibroblasts after induction with human IL-1; 0.1% BSA in assay buffer; read-out: hB1 IC50 IMR90. As for the experimental part: Calcium Flux Assay (FLIPR) with Human Fibroblasts for Bradykinin B1 Receptor Antagonist (hB1 IMR-90 IC50)
The Calcium flux Assay was carried out utilising IMR-90 human foetal lung fibroblasts (American Type Culture Collection, Rockville, Md.; and Coriell Institute, Camden, N.J.), which express native human B1 receptors after induction with human IL-1[…].
The fibroblasts were cultured in complete growth media comprised of Dulbecco's modified Eagle's medium (DMEM; Sigma) containing 10% foetal bovine serum, 4 mM L-glutamine, and 1% nonessential amino acids. The cells were maintained in a humidified atmosphere with 5% CO2 at 37° C. and were sub-cultured at a ratio of 1:3, every other day.
For the assay, IMR-90 fibroblasts were harvested using TrypLE Express (GIBCO/Invitrogen) and seeded into 384-well plates (Corning Cellbinding Surface, Cat. 3683) at a density of 15000 cells/well. The following day, cells were treated with 0.35 ng/mL human IL-1[…] in 10% FBS/MEM for 3 h to up-regulate B1 receptors. Induced cells were loaded with fluorescent calcium indicator by incubation with 2.5 μM Fluo-4/AM (Invitrogen) at 37° C., 5% CO2 for 2 h in the presence of 2.5 mM probenecid in 1% FBS/MEM. Extracellular dye was removed by washing with assay buffer (2.5 mM probenecid and 0.1% BSA in 20 mM HEPES/HBSS without bicarbonate or phenol red, pH 7.5). Example compounds were assayed at 8 concentrations in triplicate. […] A peptide antagonist Lys-(Des-Arg-Leu)-Bradykinin (Bachem, Brackley) at 20 µM was used to determine the full inhibition as control. IC50 values were determined by the same way described for the FLIPR assay with recombinant cells.

Where [3] appears, read: absence of 0.1% BSA in assay buffer, read-out: hB1 free IC50.
[4] abbreviates: presence of 0.1% BSA in assay buffer, read-out: hB1 IC50.

As to `COc1ccc(-c2ccc(NC(=O)C3CC3c3cccc(Cl)c3)cc2-c2nnn[nH]2)cc1OC` (racemic) [Example 8, 2-(3-chlorophenyl)-N-[3′,4′-dimethoxy-2-(1H-tetrazol-5-yl)biphenyl-4-yl]cyclo-propanecarboxamide], the pIC50 in assay [1] (setting [3]) was 7.92; in assay [1] (setting [4]), 8.10; in assay [2], 8.10.
Regarding `COc1ccc(-c2ccc(NC(=O)C3CC3C3CCC(C)CC3)cc2-c2nnn[nH]2)cc1OC` (racemic) [Example 15, N-[3′,4′-dimethoxy-2-(1H-tetrazol-5-yl)biphenyl-4-yl]-2-(4-methylcyclohexyl)cyclo-propanecarboxamide], the values for the pIC50 in assay [1] (setting [4]) and in assay [2] were 8.30 and 7.60, respectively.
As for `CCOc1ccc(-c2ccc(NC(=O)C3CC3c3ccc(Cl)cc3)cc2-c2nnn[nH]2)cn1` (racemic) [Example 17, 2-(4-Chlorophenyl)-N-[4-(6-ethoxypyridin-3-yl)-3-(1H-tetrazol-5-yl)phenyl]cyclopro-panecarboxamide], the pIC50 is 8.30 in assay [1] (setting [3]), 7.01 in assay [1] (setting [4]) and 7.92 in assay [2].
The corresponding values for `CCOc1ccc(-c2ccc(NC(=O)C3CC3c3cccc(C)c3)cc2-c2nnn[nH]2)cn1` (racemic) [Example 18, N-[4-(6-Ethoxypyridin-3-yl)-3-(1H-tetrazol-5-yl)phenyl]-2-(3-methylphenyl)cyclopro-panecarboxamide] are 8.30, 7.82 and 8.22.
Consider `CCOc1ccc(-c2ccc(NC(=O)C3CC3c3cccc(Cl)c3)cc2-c2nnn[nH]2)cn1` (racemic) [Example 19, 2-(3-Chlorophenyl)-N-[4-(6-ethoxypyridin-3-yl)-3-(1H-tetrazol-5-yl)phenyl]cyclopro-panecarboxamide], for which the figures for the pIC50 in assay [1] (setting [3]) and in assay [2] were 8.22 and 8.00, respectively.
As to `CCOc1ccc(-c2ccc(NC(=O)C3(C)CC3c3ccccc3)cc2-c2nnn[nH]2)cn1` (racemic) [Example 21, [4-(6-Ethoxypyridin-3-yl)-3-(1H-tetrazol-5-yl)phenyl]-1-methyl-2-phenylcyclopropane-carboxamide], the values for the pIC50 in assay [1] (setting [3]), in assay [1] (setting [4]) and in assay [2] were 7.85, 7.66 and 7.66, respectively.
On to `CCOc1ccc(-c2cc(O)c(NC(=O)C3CC3c3cccc(C)c3)cc2-c2nnn[nH]2)cn1` (racemic) [Example 51, N-[4-(6-Ethoxypyridin-3-yl)-2-hydroxy-5-(1H-tetrazol-5-yl)phenyl]-2-(3-methylphenyl)cyclopro-panecarboxamide], for which the negative logarithm of the IC50 (pIC50) in assay [1] (setting [3]) was 8.52; in assay [1] (setting [4]) it was 7.96; in assay [2] it was 8.10.
Taken in the same sequence, the figures for `Cc1cccc(C2CC2C(=O)Nc2cc(-c3nnn[nH]3)c(-c3ccc(C(F)(F)F)nc3)cc2O)c1` (racemic) [Example 52, N-{2-Hydroxy-5-(1H-tetrazol-5-yl)-4-[6-(trifluoromethyl)pyridin-3-yl]phenyl}-2-(3-methylphenyl)cyclopro-panecarboxamide] were 7.39, 7.43 and 7.11.
In the case of `COc1ccc(-c2cc(F)c(NC(=O)C3CC3c3cccc(C)c3)cc2-c2nnn[nH]2)cc1` (racemic) [Example 55, N-[5-Fluoro-4′-methoxy-2-(1H-tetrazol-5-yl)biphenyl-4-yl]-2-(3-methylphenyl)cyclopro-panecarboxamide], the pIC50 is 7.72 in assay [1] (setting [3]), 8.00 in assay [1] (setting [4]) and 7.66 in assay [2].
Turning to `CCOc1ccc(-c2c(F)cc(NC(=O)C3CC3c3ccc(Cl)cc3)cc2-c2nnn[nH]2)cn1` (racemic) [Example 61, 2-(4-chlorophenyl)-N-[4-(6-ethoxypyridin-3-yl)-3-fluoro-5-(1H-tetrazol-5-yl)phenyl]cyclopropane-carboxamide], the values for the pIC50 in assay [1] (setting [3]) and in assay [2] were 7.92 and 7.36, respectively.
Consider `CCOc1ccc(-c2cc(C)c(NC(=O)C3CC3c3ccc(Cl)cc3)cc2-c2nnn[nH]2)cn1` (racemic) [Example 64, 2-(4-Chlorophenyl)-N-[4-(6-ethoxypyridin-3-yl)-2-methyl-5-(1H-tetrazol-5-yl)phenyl]cyclopropane-carboxamide], for which the pIC50 is 7.82 in assay [1] (setting [3]), 7.43 in assay [1] (setting [4]) and 7.20 in assay [2].
For the compound `Cc1cccc(C2CC2C(=O)Nc2ccc(-c3ccc(OC(C)C)nc3)c(-c3nnn[nH]3)c2)c1` (racemic) [Example 78, N-[4-(6-isopropoxypyridin-3-yl)-3-(1H-tetrazol-5-yl)phenyl]-2-(3-methylphenyl)cyclopro-panecarboxamide], the values for the pIC50 in assay [1] (setting [4]) and in assay [2] were 8.00 and 8.05, respectively.
The corresponding values for `COc1ccc(-c2ccc(NC(=O)C3CC3C3CCCCC3)cc2-c2nnn[nH]2)cc1OC` (single isomer, unassigned) [Example 14, 2-Cyclohexyl-N-[3′,4′-dimethoxy-2-(1H-tetrazol-5-yl)biphenyl-4-yl]cyclopropane-carboxamide] are 7.57 and 7.70.
`CC[C@@H]1CCN(c2ccc(NC(=O)C3CC3c3ccc(Cl)cc3)cc2-c2nnn[nH]2)C1=O` (stereo partly drawn) [Example 75, 2-(4-Chlorophenyl)-N-{4-[(3R)-3-ethyl-2-oxopyrrolidin-1-yl]-3-(1H-tetrazol-5-yl)phenyl}cyclopropane-carboxamide]: the pIC50 in assay [1] (setting [3]) is 6.34.
Turning to `O=C(Nc1cc(-c2nnn[nH]2)c(-c2ccc(C(F)(F)F)nc2)cc1O)C1CC1c1ccc(Cl)cc1` (stereo not shown) [Example 83, 2-(4-chlorophenyl)-N-[2-hydroxy-5-(1H-tetrazol-5-yl)-4-[6-(trifluoromethyl)-3-pyridyl]phenyl]cyclo-propanecarboxamide], the figures for the negative logarithm of the IC50 (pIC50) in assay [1] (setting [3]) and in assay [1] (setting [4]) were 6.73 and 6.32, respectively.
